Experimental data taken from patent US4438104A, “Endorphins having placental or pancreatic origin” (Endorphin, Inc., priority 1982, dated 1984).

Key:
mice = conditions: stated as known characteristic; cited from earlier work
Balb/C mice = assay: Delay in tail-flick in mice from a standardized heat injury; assay type: in vivo
Procedure: Using p-endorphin as prepared in Example 2 tests of the delay in tail-flick in mice from a standardized heat injury were conducted under our direction and control as follows: Inbred mice (in this case Balb/C males weighing 20 to 25 gms) were held in a special body holder in cotton and a standardized "heat-run" or lamp was held a standardized distance away from the base of the tail which was painted black with india ink to increase the amount of energy it absorbs. On the average, 3.5 seconds of this heat is enough to cause these mice to flick their tail in a vigorous fashion. This end-point is unmistakable. The standard deviation of 50 determinations of this kind is approximately 0.7 seconds. Therefore, the normal range of large numbers of these mice with multiple determinations would be about 2.2 to 4.8 seconds.
The data set forth below in Table 1 illustrate the amount of time for the onset of tail flicking by mice tested at various times after the injection of […] of p-endorphin (P-EP).

For “beta-endorphin (YGGFMTSEKSQTPLVTLFKNAIIKNAYKKGE; Beta-endorphin; UniProt P01189 237-267, looked up) [endogenous opioid peptide hormone, 61 to 91 portion of beta lipotropin; standard]”, which Staub tail (mice) is on record?
The Staub tail was “characteristic”.

What about the delay in tail-flick (Balb/C mice; mice) of the same substance?
Its delay in tail-flick is “more than 10 seconds”.

What about the “amount required to obtain the same in vivo effect” value (Balb/C mice; same tail-flick effect as 30 μg P-EP preparation) of the same substance?
The value was “about 0.8 nanamoles per mouse”.
